# Measured values: EP0702683B1, “06-SUBSTITUTED GUANINE DERIVATIVES, A PROCESS FOR THEIR PREPARATION AND THEIR USE IN TREATING TUMOUR CELLS” (Cancer Research Technology Limited, priority 1993, dated 1994)
# Read-outs that look alike come from different tables or passages of the source.
# Experiments:
# [1] = Stability of inactivators at 37°C (spectrophotometric half life); type: physicochemical
# Protocol: Inactivators (10mM in DMSO) were diluted to 0.1mM in prewarmed degassed buffer I (1mM EDTA, 50mM Tris pH 8.3) or PBS (pH 7-7.2). […] Samples were immediately transferred to a CARY13 spectrophotometer (cuvette block held at 37°C) and scanned at an appropriate wavelength (according to the spectral properties of the compound) at 3-10 minute intervals for up to 80 hours. The results were expressed as percentage absorbance change versus time and T1/2 values (half life) extrapolated from this.
# Raji cells [2] = assay: Sensitization of Raji cells to BCNU (XTT assay); type: cell-based, human; settings: BCNU, 2 hour pretreatment; for Raji sensitization (D90.^C/D90.^I) 0.5µM: inactivator 0.5µM; for Raji sensitization (D90.^C/D90.^I) 1.0µM: inactivator 1.0µM; for Raji sensitization (D90.^C/D90.^I) O.1µM: inactivator O.1µM
# Protocol: (§1) Following a 2 hour incubation at 37°C, medium containing either increasing doses of BCNU, temozolomide or equivalent vehicle was added and the cells allowed to grow for 6 days. At this time XTT solution was added and the cells incubated for a further 4 hours at 37°C. The resulting red/orange formazan reaction product was quantified by measuring absorption at 450nm on a microtitre platereader.
# A375M cells = assay: Sensitization of A375M cells to BCNU (MTT assay); type: cell-based, human; settings: for A375M sensitization (D50.^C/D50.^I) 1.0uM: inactivator 1.0uM 2 hours before; for A375M sensitization (D50.^C/D50.^I) 0.5uM: inactivator 0.5uM 2 hours before; for A375M sensitization (D50.^C/D50.^I) 5.0uM: inactivator 5.0uM 2 hours before
# Protocol: Sensitization of A375M cells to the cytotoxic effects of BCNU was analysed by MTT assay ^24 differing from the XTT assay described above as follows. […] After 6 days MTT solution (4mg/ml) was added and cells incubated for 3 hours at 37°C. Medium was aspirated and the resulting purple formazan crystals were solubilised in DMSO (120μl) and cell viability was quantified by measuring absorption at 540nm using a microtitre plate reader.
# ATase [3] = target: T1, ATase (Homo sapiens, UniProt P16455); assay: In vitro ATase inactivation assay with purified recombinant human ATase; type: biochemical; set-up: made in house
# T1 sequence (P16455 1-207): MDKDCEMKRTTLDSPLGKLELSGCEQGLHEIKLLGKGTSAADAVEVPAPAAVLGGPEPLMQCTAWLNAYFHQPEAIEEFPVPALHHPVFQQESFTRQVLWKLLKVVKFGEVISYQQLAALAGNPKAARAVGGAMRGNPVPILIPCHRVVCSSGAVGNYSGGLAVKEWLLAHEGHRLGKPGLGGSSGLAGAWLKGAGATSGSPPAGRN
# Protocol: The cDNA cloning and overexpression of the human ATase has been reported previously^23. Purification of the recombinant proteins was achieved either by affinity chromatography through a DNA-cellulose column as described by Wilkinson et al.,^25, 26, or by DEAE-cellulose ion-exchange chromatography. For the latter, the ATase protein was partially purified by ammonium sulphate precipitation (30 - 60%) and dialysed against 10 mM Tris-HCl pH 7.5, 1 mM DTT, 2 mM EDTA, 10% glycerol, before loading on a DEAF-cellulose column. The ATase was then eluted with a 0-0.1 M NaCl gradient.
# Compounds to be tested were dissolved in DMSO to a final concentration of 10 mM and diluted just before use in buffer I containing 1 mg/ml bovine serum albumin (IBSA). Recombinant ATase was diluted in IBSA and titrated in order that the reaction be conducted under ATase, and not substrate, limiting conditions. In each assay, fixed amounts of ATase (60-75 fmol) were incubated with varying amounts of 0^6-benzylguanine, or test compound in a total volume of 200 µl of IBSA containing 10 µg of calf thymus DNA at 37°C for 1 hour. The [^3H]-methylated-DNA substrate (100 µl containing 6.7 µg of DNA and 100 fmol of 0^6-methylguanine) was added and incubation continued at 37° for 1 hour, until the reaction was completed. Following acid hydrolysis of the DNA as previously described^21 the [^3H]-methylated protein was recovered and quantitated by liquid scintillation counting. Samples were typically assayed in duplicate and experiments repeated several times. I50 is the concentration of inactivator required to produce a 50% reduction in ATase activity.
# ATase [4] = target: T1, ATase; assay: Inactivation of ATase activity in Raji cells; type: cell-based; set-up: endogenous in cells; host or cells: Raji; settings: Raji cells, 2 hours at 37°C; read-out: Raji I50
# Protocol: (§2) Mammalian cells were cultured under standard conditions. For example, Raji (a human lymphoblastoid cell line from a Burkitt's lymphoma) cells were grown in suspension culture in RPMI medium supplemented with 10% horse serum. A375M cells are human melanoma cells from which the xenografts described below were established following subcutaneous injection into nude mice: WiDr cells are a human colon carcinoma cell line: Hamster+120 cells are a mitozolomide-selected subline of a Chinese hamster lung fibroblast V79 cell line called RJKO: Yoshida cells are a rat carcinosarcoma cell line and YRbus is a busulphan resistant subline thereof: XP cells are an SV40-transformed fibroblast cell line originally from the skin of a Xeroderma pigmentosum patient, pHMGhAT2b cells are a clone of these cells that have been transfected with a mammalian cell expression vector containing the human ATase cDNA and pHMGla cells are a clone that have been transfected with the expression vector only (i.e. one not containing the human ATase cDNA). Cell pellets were resuspended in cold (4°C) buffer I containing 2 µg/ml leupeptin and sonicated for 10 seconds at 12 µ peak to peak distance. After cooling in ice, the cells were sonicated for a further 10 seconds at 18 µ. Immediately after sonication, 0.01 volumes of 8.7 mg/ml phenylmethanesulphonylfluoride in ethanol was added and the sonicates centrifuged at 15 000 g for 10 minutes at 4°C to pellet cell debris. The supernatant was kept for determination of ATase activity (see below).
# (§3) Cells were diluted to 10^6/ml in culture medium containing either the appropriate concentration of inactivator or an equivalent volume of vehicle (DMSO). Following incubation at 37°C for 2 hours the cells were harvested by centrifugation, washed twice with PBS and the resulting cell pellets (between 1-2 x 10^7 per pellet) stored at -20°C.
# ATase [5] = target: T2, ATase (Rattus norvegicus, UniProt P24528); assay: Inactivation of ATase activity in Yoshida cells; type: cell-based
# T2 construct: endogenous in cells; host or cells: Yoshida
# T2 sequence (P24528 1-209): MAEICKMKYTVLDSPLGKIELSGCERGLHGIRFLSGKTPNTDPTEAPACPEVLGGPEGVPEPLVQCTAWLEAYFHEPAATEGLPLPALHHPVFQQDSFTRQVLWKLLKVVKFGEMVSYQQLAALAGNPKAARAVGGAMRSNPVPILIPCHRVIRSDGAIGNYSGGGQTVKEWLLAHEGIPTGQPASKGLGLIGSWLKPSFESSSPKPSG
# Protocol: as §2
# as §3, with “-20°C. ATase activity was determined as described above, in duplicate sonicated cell extracts and expressed as the percentage activity remaining based on that present in the untreated controls (for example 350-450 fm/mg in Raji cells).” for “-20°C.”
# Raji cells [6] = assay: Sensitization of Raji cells to temozolomide (XTT assay); type: cell-based, human; settings: inactivator 0.1 to 5.0µM, Figures 3 and 4, in words
# Protocol: as §1
# [7] = Toxicity of inactivator in combination with BCNU in xenograft-bearing mice (survival); type: in vivo, nude mice; settings: mouse, in vivo, ip; in combination with BCNU, Figs. 9-13; read-out: death of treated animals
# Protocol: 0X6 OPT, England (OLAC mice). […] For this reason lower doses were administered.
# Xenograft tumour measurements were taken every 1-2 days by workers using digital calipers. Tumour volume was calculated using the formula (h x w x 1) π/6. The experimental animals were also weighed every 1-2 days. Measurements continued until tumours in the control animals reached the maximum allowable volume (i.e. 1cm x 1cm x 1cm).
# human bone marrow cells = assay: Sensitization of bone marrow cells to temozolomide (GM-CFC assay); type: cell-based; settings: three samples tested (BeG: all three; B.4205: two of these), Fig. 14, in words
# Text: For the granulocyte/macrophage colony-forming cell (GM-CFC) assay primary human bone marrow samples were obtained from patients undergoing cardiothoracic surgery. […] The colonies represented precursor cells of the granulocyte/macrophage lineage (huGM-CFC). Survival was expressed as a % of the number of colonies at zero dose temozolomide.
# [8] = Inactivator toxicity in bone marrow cells (GM-CFC colonies, inactivator alone); type: cell-based, human; settings: human, bone marrow gm-cfc, inactivator 10uM, read-out: No. of colonies as % of control (ie no inactivator)
# Text: For the granulocyte/macrophage colony-forming cell (GM-CFC) assay primary human bone marrow samples were obtained from patients undergoing cardiothoracic surgery. […] The colonies represented precursor cells of the granulocyte/macrophage lineage (huGM-CFC). […]
# [9] = 0.1mM in PBS (pH 7-7.2), read-out: T1/2(h) in PBS (converted)
# [10] = 0.1mM in buffer I (1mM EDTA, 50mM Tris pH 8.3), read-out: T1/2(h) in Buffer I (converted)
Compound,"half-life at 100 µM [1, 9]",Raji sensitization (D90.^C/D90.^I) 0.5µM (Raji cells [2]),Raji sensitization (D90.^C/D90.^I) 1.0µM (Raji cells [2]),Raji sensitization (D90.^C/D90.^I) O.1µM (Raji cells [2]),A375M sensitization (D50.^C/D50.^I) 1.0uM (A375M cells),IC50 (ATase [3]),IC50 (ATase [4]),"half-life at 100 µM [1, 10]",IC50 (ATase [5]),A375M sensitization (D50.^C/D50.^I) 0.5uM (A375M cells),A375M sensitization (D50.^C/D50.^I) 5.0uM (A375M cells),dose response of sensitization of Raji cells to temozolomide (Raji cells [6]),mortality [7],sensitization of GM-CFCs in human bone marrow samples to the toxic effects of temozolomide (human bone marrow cells),"viability at 216 h, 10 µM ([8]; Patient A)","viability at 216 h, 10 µM ([8]; Patient B)","viability at 216 h, 10 µM ([8]; Patient C)","viability at 216 h, 10 µM ([8]; Patient D)","viability at 216 h, 10 µM ([8]; Patient E)","effectiveness in the in vitro ATase inactivation assay compared with BeG (ATase [3]; Figure 1, in words)"
"Cc1ccc(COc2nc(N)nc3[nH]cnc23)o1 [B.4221, O^6-(5-methylfurfuryl)guanine]",> 16 h,1.0,1.0,1.0,1.0,10000 nM,> 1000 nM,,,,,,,,,,,,,
"Nc1nc(OCc2ccccc2)c2nc[nH]c2n1 [O^6-benzylguanine, reference compound]",> 16 h,*2.0 ± 0.4,*3.8 ± 1.8,*1.9 ± 0.7,2.3,,,> 64 h,140 nM,3.1,4.2,clear dose response,≤ 70%,sensitised,95%,46%,88%,88%,89%,
"Cc1ccsc1COc1nc(N)nc2[nH]cnc12 [B.4222, O^6-(3-methylthenyl)guanine]",> 16 h,1.9,2.1,1.4,1.4,650 nM,470 nM,,,,,,,,,,,,,
"Nc1nc(OCc2ccsc2)c2nc[nH]c2n1 [B.4206, O^6-(3-thienylmethyl)guanine]",> 16 h,,6.0,1.6,,30 nM,60 nM,> 80 h,,3.3,4.6,,,,,,,,,somewhat more effective than BeG
"Cc1ccc(COc2nc(N)nc3[nH]cnc23)s1 [B.4220, O^6-(5-methylthenyl)guanine]",> 16 h,1.0,1.0,1.0,1.3,9000 nM,> 1000 nM,,,,,,,,,,,,,
